PubChem BioAssay (NCI)
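Interpolation was linear, between the two tested concentrations surrounding the appropriate level; five concentrations were tested over 48 hours in 96-well plates. TGI is the concentration that stops growth completely.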

Key:
Test in all cases: growth of human tumour cells (NCI), 48 h
[1] = tested on: HOP-18 NSCLC
[2] = tested on: M14 melanoma
[3] = tested on: DMS 273 small cell lung
[4] = tested on: NCI-H226 lung
[5] = tested on: UACC-62 melanoma
[6] = tested on: KM12 colon
[7] = tested on: CAKI-1 renal
[8] = tested on: 786-0 renal
[9] = tested on: SF-295 CNS
[10] = tested on: HCT-15 colon
[11] = tested on: SNB-19 CNS
[12] = tested on: A498 renal
[13] = tested on: K-562 leukemia
[14] = tested on: UACC-257 melanoma
[15] = tested on: SF-539 CNS
[16] = tested on: A549 NSCLC
[17] = tested on: DMS 114 small cell lung
[18] = tested on: M19-MEL melanoma
[19] = tested on: NCI-H460 lung
[20] = tested on: HT29 colon
[21] = tested on: SNB-78 CNS
[22] = tested on: OVCAR-8 ovarian
[23] = tested on: NCI-H23 lung
[24] = tested on: HOP-62 NSCLC
[25] = tested on: SW-620 colon
[26] = tested on: UO-31 renal
[27] = tested on: HL-60(TB) leukemia
[28] = tested on: OVCAR-3 ovarian
[29] = tested on: MALME-3M melanoma
[30] = tested on: RXF 393 renal
[31] = tested on: HOP-92 NSCLC
[32] = tested on: CCRF-CEM leukemia
[33] = tested on: KM20L2 colon
[34] = tested on: HCC-2998 colon
[35] = tested on: SK-MEL-5 melanoma
[36] = tested on: SK-MEL-2 melanoma
[37] = tested on: SF-268 CNS
[38] = tested on: RXF-631 renal
[39] = tested on: ACHN renal
[40] = tested on: IGROV1 ovarian
[41] = tested on: DLD-1 colon
[42] = tested on: SR leukemia
[43] = tested on: OVCAR-4 ovarian
[44] = tested on: SN12C renal
[45] = tested on: SK-MEL-28 melanoma
[46] = tested on: U251 CNS
[47] = tested on: LOX IMVI melanoma
[48] = tested on: TK-10 renal
[49] = tested on: MOLT-4 leukemia
[50] = tested on: RPMI-8226 leukemia
[51] = tested on: SNB-75 CNS
[52] = tested on: NCI-H522 lung
[53] = tested on: COLO 205 colon
[54] = tested on: HCT-116 colon
[55] = tested on: OVCAR-5 ovarian
[56] = tested on: LXFL 529 NSCLC
[57] = tested on: SK-OV-3 ovarian
[58] = tested on: EKVX NSCLC

Measured: TGI

Nc1nc2c3c(ncn3CC(O)CO2)n1 (stereo not drawn)
28.6 µM: [20]
29 µM: [51]
19.4 µM: [18]
not listed: [58]
> 100 µM: all other assays above

COc1ccc(/C=C/C(=O)c2sc(Nc3ccc([N+](=O)[O-])cc3)nc2C)cc1
87.9 µM: [30]
48.6 µM: [36]
85 µM: [23]
91.9 µM: [26]
46.8 µM: [35]
51.1 µM: [52]
81.5 µM: [9] | [31]
67.6 µM: [27]
50.7 µM: [49]
89.4 µM: [28]
82 µM: [32]
47.9 µM: [50]
93.6 µM: [13]
83.5 µM: [34]
not listed: [2] | [4] | [14] | [20] | [42] | [43] | [54] | [56]
> 100 µM: all other assays above

CN1C(=O)N(C)C2(O)c3ccccc3C(=O)C12O (stereo not drawn)
not listed: [27] | [31]
> 100 µM: all other assays above
